Patent publication US7432397B2, “Imaging compounds” (Hammersmith Imanet Ltd., priority 2002, dated 2008)
Marks after values point to notes of the source that are not given here.

Assay: Biodistribution of radioactivity in rat tissues after intravenous injection
Assay type: in vivo
Details: for Radioactivity in Entorhinal cortex / Radioactivity in Fat / Radioactivity in Heart (ventricle) / Radioactivity in Hippocampus / Radioactivity in Hypothalamus / Radioactivity in Inferior collicull / Radioactivity in Kidney / Radioactivity in Large intestine / Radioactivity in Lge. intestine content / Radioactivity in Liver / Radioactivity in Lung / Radioactivity in Medulla with Pons / Radioactivity in Olfactory bulbs / Radioactivity in Olfactory tubercles / Radioactivity in Prefrontal cortex / Radioactivity in Skeletal muscle / Radioactivity in Skin / Radioactivity in Sm. intestine content / Radioactivity in Small intestine / Radioactivity in Somatosensory cortex / Radioactivity in Spleen / Radioactivity in Stomach / Radioactivity in Striata / Radioactivity in Superior collicull / Radioactivity in Testis / Radioactivity in Thalamus / Radioactivity in Urine / Radioactivity in Visual cortex / Radioactivity in Plasma / Radioactivity in Whole blood / Radioactivity in Cerebellum: i.v.; for Radioactivity in Plasma / Radioactivity in Whole blood: composite curve of 9 rats
Procedure: Sixteen adult male Sprague-Dawley rats (body weight 250-320 g: mean±SD=288±25 g) were used in 5 separate experiments. Each rat was injected with ˜13 MBq Compound 1, at a specific activity of […], via a previously catheterised tail vein. The associated stable compound was 0.5±0.2 nmol/kg. Discrete samples of arterial blood were collected from 9 of the rats via a previously catheterised tail artery.
Tissues were sampled post-mortem using an established protocol, as described in Hirani et al, Synapse 42:164-176 (2001). The radioactivity concentration data obtained at 12 times up to 90 min after radioligand injection were normalised for both amount injected and body weight, giving:—‘uptake units’=(cpm/g tissue)/(injected cpm/g body weight).

[1] = period 5 to 90 min after intravenous injection

CSc1cccc(N([11CH3])C(=N)Nc2cc(SC)ccc2Cl)c1 [Compound 1, (N-(2-chloro-5-(methylthio)phenyl)-N′-(3-methylthio)phenyl)-N′-[N-methyl-^11C]-methylguanidine]
Radioactivity in Entorhinal cortex (60 min): 0.73* Uptake Units
Radioactivity in Fat (60 min): 0.79* Uptake Units
Radioactivity in Heart (ventricle) (60 min): 0.59* Uptake Units
Radioactivity in Hippocampus (60 min): 0.76* Uptake Units
Radioactivity in Hypothalamus (60 min): 0.65* Uptake Units
Radioactivity in Inferior collicull (60 min): 0.54* Uptake Units
Radioactivity in Kidney (60 min): 1.87* Uptake Units
Radioactivity in Large intestine (60 min): 1.03* Uptake Units
Radioactivity in Lge. intestine content (60 min): 0.44* Uptake Units
Radioactivity in Liver (60 min): 5.73* Uptake Units
Radioactivity in Lung (60 min): 4.10* Uptake Units
Radioactivity in Medulla with Pons (60 min): 0.67* Uptake Units
Radioactivity in Olfactory bulbs (60 min): 0.55* Uptake Units
Radioactivity in Olfactory tubercles (60 min): 0.65* Uptake Units
Radioactivity in Prefrontal cortex (60 min): 0.77* Uptake Units
Radioactivity in Skeletal muscle (60 min): 0.49* Uptake Units
Radioactivity in Skin (60 min): 0.46* Uptake Units
Radioactivity in Sm. intestine content (60 min): 6.08* Uptake Units
Radioactivity in Small intestine (60 min): 1.29* Uptake Units
Radioactivity in Somatosensory cortex (60 min): 0.68* Uptake Units
Radioactivity in Spleen (60 min): 2.98* Uptake Units
Radioactivity in Stomach (60 min): 0.66* Uptake Units
Radioactivity in Striata (60 min): 0.67* Uptake Units
Radioactivity in Superior collicull (60 min): 0.54* Uptake Units
Radioactivity in Testis (60 min): 0.89* Uptake Units
Radioactivity in Thalamus (60 min): 0.74* Uptake Units
Radioactivity in Urine (60 min): 24.4* Uptake Units
Radioactivity in Visual cortex (60 min): 0.73* Uptake Units
Radioactivity in Plasma (60 min): 0.18 Uptake Units
Radioactivity in Whole blood (60 min): 0.17 Uptake Units
Radioactivity in Cerebellum (70 min): 0.38* Uptake Units
Radioactivity in Entorhinal cortex (70 min): 0.41 Uptake Units
Radioactivity in Fat (70 min): 0.55* Uptake Units
Radioactivity in Heart (ventricle) (70 min): 0.52* Uptake Units
Radioactivity in Hippocampus (70 min): 0.54* Uptake Units
Radioactivity in Hypothalamus (70 min): 0.33 Uptake Units
Radioactivity in Inferior collicull (70 min): 0.39 Uptake Units
Radioactivity in Kidney (70 min): 1.88* Uptake Units
Radioactivity in Large intestine (70 min): 0.76* Uptake Units
Radioactivity in Lge. intestine content (70 min): 0.57* Uptake Units
Radioactivity in Liver (70 min): 6.02* Uptake Units
Radioactivity in Lung (70 min): 4.62* Uptake Units
Radioactivity in Medulla with Pons (70 min): 0.39 Uptake Units
Radioactivity in Olfactory bulbs (70 min): 0.31 Uptake Units
Radioactivity in Olfactory tubercles (70 min): 0.36 Uptake Units
Radioactivity in Prefrontal cortex (70 min): 0.52* Uptake Units
Radioactivity in Skeletal muscle (70 min): 0.44* Uptake Units
Radioactivity in Skin (70 min): 0.47* Uptake Units
Radioactivity in Sm. intestine content (70 min): 5.41* Uptake Units
Radioactivity in Small intestine (70 min): 1.34* Uptake Units
Radioactivity in Somatosensory cortex (70 min): 0.38 Uptake Units
Radioactivity in Spleen (70 min): 2.97* Uptake Units
Radioactivity in Stomach (70 min): 0.96 Uptake Units
Radioactivity in Striata (70 min): 0.46* Uptake Units
Radioactivity in Superior collicull (70 min): 0.28 Uptake Units
Radioactivity in Testis (70 min): 0.74* Uptake Units
Radioactivity in Thalamus (70 min): 0.40 Uptake Units
Radioactivity in Urine (70 min): 16.9* Uptake Units
Radioactivity in Visual cortex (70 min): 0.38 Uptake Units
Radioactivity in Plasma (70 min): 0.20 Uptake Units
Radioactivity in Whole blood (70 min): 0.18 Uptake Units
Radioactivity in Cerebellum (90 min): 0.32* Uptake Units
Radioactivity in Entorhinal cortex (90 min): 0.38* Uptake Units
Radioactivity in Fat (90 min): 0.51* Uptake Units
Radioactivity in Heart (ventricle) (90 min): 0.40* Uptake Units
Radioactivity in Hippocampus (90 min): 0.46* Uptake Units
Radioactivity in Hypothalamus (90 min): 0.35* Uptake Units
Radioactivity in Inferior collicull (90 min): 0.36 Uptake Units
Radioactivity in Kidney (90 min): 1.50* Uptake Units
Radioactivity in Large intestine (90 min): 0.61* Uptake Units
Radioactivity in Lge. intestine content (90 min): 0.66* Uptake Units
Radioactivity in Liver (90 min): 3.85* Uptake Units
Radioactivity in Lung (90 min): 2.62* Uptake Units
Radioactivity in Medulla with Pons (90 min): 0.39* Uptake Units
Radioactivity in Olfactory bulbs (90 min): 0.28* Uptake Units
Radioactivity in Olfactory tubercles (90 min): 0.36* Uptake Units
Radioactivity in Prefrontal cortex (90 min): 0.45* Uptake Units
Radioactivity in Skeletal muscle (90 min): 0.35* Uptake Units
Radioactivity in Skin (90 min): 0.40* Uptake Units
Radioactivity in Sm. intestine content (90 min): 3.66* Uptake Units
Radioactivity in Small intestine (90 min): 0.93* Uptake Units
Radioactivity in Somatosensory cortex (90 min): 0.43* Uptake Units
Radioactivity in Spleen (90 min): 2.07* Uptake Units
Radioactivity in Stomach (90 min): 0.34* Uptake Units
Radioactivity in Striata (90 min): 0.41* Uptake Units
Radioactivity in Superior collicull (90 min): 0.23 Uptake Units
Radioactivity in Testis (90 min): 0.79* Uptake Units
Radioactivity in Thalamus (90 min): 0.42* Uptake Units
Radioactivity in Urine (90 min): 46.4* Uptake Units
Radioactivity in Visual cortex (90 min): 0.44* Uptake Units
Radioactivity in Plasma (90 min): 0.21 Uptake Units
Radioactivity in Whole blood (90 min): 0.18 Uptake Units
radioactivity level in plasma [1]: ~0.2 uptake units
radioactivity level in whole blood [1]: ~0.2 uptake units
